Measured values published in patent EP0239801B1, “Plant cells resistant to herbicidal glutamine synthetase inhibitors” (THE GENERAL HOSPITAL CORPORATION, priority 1986, dated 1987).
Where two headings read alike, the source gives them in different places.

Experiments:
[1] = system: variant PPT resistant alfalfa cell line; assay: Growth of suspension cultures (packed cell volume), selected resistant cells; assay type: cell-based
Description: The amide nitrogen of glutamine provides the source of nitrogen for many biosynthetic reactions, indicating a central role for GS in nitrogen metabolism.
Selection is carried out in an appropriate culture medium by cultivating plant cells in the presence of stepwise increases of the herbicidal GS-inhibitor in the medium. After a given period of time has elapsed, such as, for example, a few weeks to several months, it is possible to select a cell population which is several-fold more resistant to the herbicidal GS-inhibitor than the original plant cells. For example, when the cells are alfalfa and the inhibitor is PPT, it has been possible to obtain a PPT-resistant alfalfa cell line after one year of stepwise PPT increases, which line was 20-fold more resistant to PPT than the original line. […] This was never possible by plating wild-type cells.
An alfalfa cell line which is able to grow in the presence of 3 mM L-phosphinothricin in the culture medium was selected. Alfalfa was chosen since it is one of the model plants in which the regeneration of a whole plant from single isolated cells or protoplasts can be readily achieved.
The selection of the phosphinothricin resistant alfalfa line was done by stepwise increase of the inhibitor concentration in the liquid culture medium. […]

[2] = target: pea leaf glutamine synthetase; conditions: cited from earlier work
dicotyledonous weeds = conditions: field trials in West Germany, Spain, South Africa, U.S.A. and Japan; Schwerdtle 1981; cited from earlier work
[3] = target: glutamine synthetase from E. coli (Escherichia coli, UniProt P0A9C5); conditions: competitive inhibitor; cited from earlier work
glutamine synthetase from E. coli, sequence (P0A9C5 2-469): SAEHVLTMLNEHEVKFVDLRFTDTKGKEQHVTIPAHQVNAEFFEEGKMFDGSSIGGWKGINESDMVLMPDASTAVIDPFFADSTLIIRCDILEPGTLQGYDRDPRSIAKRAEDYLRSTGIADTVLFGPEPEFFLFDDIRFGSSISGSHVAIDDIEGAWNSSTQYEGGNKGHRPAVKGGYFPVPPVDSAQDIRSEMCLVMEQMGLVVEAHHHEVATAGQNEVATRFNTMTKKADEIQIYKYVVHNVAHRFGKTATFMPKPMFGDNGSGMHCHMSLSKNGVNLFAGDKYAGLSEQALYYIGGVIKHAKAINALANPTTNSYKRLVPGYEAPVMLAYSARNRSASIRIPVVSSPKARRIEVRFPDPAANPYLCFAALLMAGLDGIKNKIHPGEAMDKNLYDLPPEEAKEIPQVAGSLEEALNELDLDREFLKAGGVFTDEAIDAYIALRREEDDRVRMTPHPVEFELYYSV

GS = GS activity of cell extracts in the presence of various amounts of phosphinothricin; assay type: biochemical, alfalfa; conditions: both cell types
Description: When the protein patterns of crude cell extracts of the susceptible and resistant cell lines were compared by SDS-polyacrylamide gel electrophoresis, the overproduction of a polypeptide in the molecular weight range 40-42 KD could be observed in the PPT-resistant cell line. Purified GS of alfalfa has the same molecular weight. The enzyme activity of the cell extracts was determined in parallel. The specific GS-activity in the resistant cells was 5-10 fold higher than in wild-type cells. The specific activity of GS in the PPT-resistant cell lines is in the same order of magnitude as in root nodule tissue of alfalfa, which, as all nodule tissues of efficiently dinitrogen fixing legumes, has high GS-activity.

monocotyledonous weeds = conditions: field trials; Schwerdtle 1981; cited from earlier work

For `CP(=O)(O)CC[C@H](N)C(=O)O` [L-phosphinothricin], the “concentration in the culture medium in the presence of which the selected cell line is able to grow” value [1] was 3 mM.

In the case of `CS(=N)(=O)CCC(N)C(=O)O` (stereo not shown) [MSO, methionine sulfoximime], the Ki ([2]; read-out: Ki value) is given as 160 µM.

For `CP(=O)(O)CC[C@H](N)C(=O)O` [PPT, phosphinothricin], the Ki ([2]; mixed competitive inhibitor, Leason et al. 1982, read-out: apparent Ki value) is listed as 73 µM, the weed control (dicotyledonous weeds) is listed as “well controlled” and the Ki [3] is listed as 5.9 µM. For the same compound, the “enzyme inhibition in wild-type versus resistant cell extracts” value (GS) was “same degree of enzyme inhibition” and the weed control (monocotyledonous weeds) was “somewhat higher quantities were needed for good control”.
